What was measured:
[1] = system: RSV-A Memphis 37b challenge virus; experiment: human RSV challenge model (viral load in nasal washes by plaque assay and PCR); assay type: in vivo
Method: Healthy adults received one of the following dosing regimens or placebo over 5 days using the human RSV challenge model.
Subjects were given an intranasal inoculation of RSV-A Memphis 37b challenge virus. Administration of compound (A), or a pharmaceutically acceptable salt thereof, began approximately 12 hours after confirmation of RSV infection as determined by the presence of RSV RNA in nasopharyngeal washes. The test compound was administered as an oral-liquid suspension, wherein the drug vehicle was methyl cellulose and sterile water. The placebo was the drug vehicle without the test compound. Second dosages were started 12 hours after administration of the first dosage, and the remaining second dosages were provided in approximate 12 hour intervals. Nasal washes were collected twice daily approximately 36 to 48 hours after RSV inoculation until Day 12. Viral load was detected and quantified from the aliquots of the nasal wash samples using tissue infectivity plaque assays and PCR. (See DeVincenzo, J. P., et al., Am. J. Respir. Crit. Care. Med. (2010) 182(10):1305-1314) Subjects returned for two follow-up visits on Day 16 (±2 days) and Day 28 (±2 days) post-challenge inoculation.

[2] = half life of the triphosphate compound (B); settings: triphosphate formed inside the cell
Description: The compounds (A) and (B), or a pharmaceutically acceptable salt of the foregoing, are described in U.S. Publication Nos. 2013/0165400 and 2015/0051167 and International Publication Nos. WO 2013/142525 and WO 2013/142525, all of which are hereby incorporated by reference in their entireties. Those skilled in the art understand that once compound (A), or a pharmaceutically acceptable salt thereof, is absorbed, the groups attached to 3′ and 5′ positions can be easily removed by esterases, proteases and/or other enzymes. Once inside the cell, the triphosphate (compound (B), or a pharmaceutically acceptable salt thereof) can be formed via metabolization by cellular enzymes.

| discontinuation of treatment during the study ([1]; healthy adults, 5 days dosing) | half-life [2] | Compound | RSV RNA ([1]; Day 12, all treated subjects) | RSV RNA ([1]; Day 16 follow-up) | RSV RNA ([1]; Day 28 follow-up) | RSV viral load compared to the placebo ([1]; all regimens (750/150 mg, 750/500 mg, 375 mg), oral, 5 days, healthy adults, nasal wash, FIG. 1) | clinically significant laboratory abnormalities ([1]; healthy adults, 5 days dosing) | reduction of plaque forming units equivalents (PFUe/mL) ([1]; subjects who received 750 mg on Day 1, within the first 24 hours) |
| --- | --- | --- | --- | --- | --- | --- | --- | --- |
| no subject discontinued treatment | – | CC(C)C(=O)OC[C@@]1(CCl)O[C@@H](n2ccc(N)nc2=O)[C@H](F)[C@@H]1OC(=O)C(C)C [Compound (A)] | undetectable | undetectable | undetectable | marked reduction in RSV viral load | no clinically significant laboratory abnormalities were observed | multi-log reduction |
| – | ~17.6 h | Nc1ccn([C@@H]2O[C@](CCl)(COP(=O)(O)OP(=O)(O)OP(=O)(O)O)[C@@H](O)[C@H]2F)c(=O)n1 [Compound (B)] | – | – | – | – | – | – |

From patent publication US20160022724A1, “METHODS FOR TREATING PARAMYXOVIRUSES” (Alios BioPharma, Inc., priority 2014, published 2016)
